Experimental data from a flash point compilation (Sun et al. 2020).

| Structure (SMILES) | flash point [°C] |
| --- | --- |
| C=CCN [prop-2-en-1-amine] | -29.00 |
| CCOCC [ethoxyethane] | -45.00 |

Next, values leading:

| flash point [°C] | Structure (SMILES) |
| --- | --- |
| 74.00 | CCCCCCCCCO [nonan-1-ol] |
| 13.00 | CCCCCCCC [octane] |
| 10.00 | CC(C)(C)N [2-methylpropan-2-amine] |
| 28.00 | CC(C)CO [2-methylpropan-1-ol] |

Remark: another data set of the same source

| Structure (SMILES) | flash point [°C] |
| --- | --- |
| CCO[Si](CCOC(C)=O)(OCC)OCC [ACETOXYETHYLTRIETHOXYSILANE] | 99.00 |
| CC(=O)O[Si](C)(C)C [ACETOXYTRIMETHYLSILANE] | 4.00 |
| CC(=O)OCC[Si](C)(Cl)Cl [ACETOXYETHYLMETHYLDICHLOROSILANE] | 65.00 |
| CC(=O)OCC[Si](C)(C)Cl [ACETOXYETHYLDIMETHYLCHLOROSILANE] | 63.00 |
| C[Si](C)(C)CN=[N+]=[N-] [(AZIDOMETHYL)TRIMETHYLSILANE] | 6.00 |

Second part, the molecule after the results:

| flash point [°C] | Structure (SMILES) |
| --- | --- |
| 62.00 | C=CC(=O)OC[Si](OC)(OC)OC [ACRYLOXYMETHYLTRIMETHOXYSILANE] |
| 76.00 | C=CC[Si](Cl)(Cl)c1ccccc1 [ALLYLPHENYLDICHLOROSILANE] |
| 10.00 | C=CCN[Si](C)(C)C [ALLYLAMINOTRIMETHYLSILANE] |
| 73.00 | C[Si](C)(Cl)Cc1ccccc1 [BENZYLDIMETHYLCHLOROSILANE] |
| 104.00 | CCO[Si](CCCN)(OCC)OCC [3-AMINOPROPYLTRIETHOXYSILANE] |
| 180.00 | CO[Si](OC)(OC)c1cccc(N)c1 [m-AMINOPHENYLTRIMETHOXYSILANE] |
| -4.00 | C=CC[SiH](Cl)Cl [ALLYLDICHLOROSILANE] |
| 8.00 | CC(=O)[Si](C)(C)C [ACETYLTRIMETHYLSILANE] |
| 148.00 | CCO[Si](CCCNCCN)(OCC)OCC [N-(2-AMINOETHYL)-3-AMINOPROPYLTRIETHOXYSILANE] |
| 88.00 | C=CCNCCC[Si](OC)(OC)OC [3-(N-ALLYLAMINO)PROPYLTRIMETHOXYSILANE] |
| 27.00 | C=CC[Si](C)(C)CCl [ALLYL(CHLOROMETHYL)DIMETHYLSILANE] |
| 123.00 | C=CC(=O)OCCC[Si](OC)(OC)OC [(3-ACRYLOXYPROPYL)TRIMETHOXYSILANE] |
| 76.00 | C=CC[Si](C(C)C)(C(C)C)C(C)C [ALLYLTRIISOPROPYLSILANE] |
| 32.00 | C=CCO[Si](C)(C)C(C)(C)C [ALLYLOXY-t-BUTYLDIMETHYLSILANE] |
| 47.00 | C=CC[Si](OCC)(OCC)OCC [ALLYLTRIETHOXYSILANE] |
| 76.00 | C=CC[Si](Cl)(Cl)CCCCl [ALLYL(3-CHLOROPROPYL)DICHLOROSILANE] |
| 7.00 | C=CC[Si](C)(C)C [ALLYLTRIMETHYLSILANE] |
| 150.00 | CO[Si](CCCNCCN)(OC)OC [N-(2-AMINOETHYL)-3-AMINOPROPYLTRIMETHOXYSILANE] |
| 68.00 | COCCOCCO[Si](CCCN)(OCCOCCOC)OCCOCCOC [3-AMINOPROPYLTRIS(METHOXYETHOXYETHOXY)SILANE] |
| 66.00 | COCN(Cc1ccccc1)C[Si](C)(C)C [N-BENZYL-N-METHOXYMETHYL-N-(TRIMETHYLSILYLMETHYL)AMINE] |
| 102.00 | C=CC[Si](C)(C)c1ccc(OC)cc1 [ALLYL(4-METHOXYPHENYL)DIMETHYLSILANE] |
| 93.00 | C=CC(=O)OCCC[Si](O[Si](C)(C)C)(O[Si](C)(C)C)O[Si](C)(C)C [(3-ACRYLOXYPROPYL)TRIS(TRIMETHYLSILOXY)SILANE] |
| 59.00 | C[Si](C)(C)CCCN [3-AMINOPROPYLTRIMETHYLSILANE] |
| 31.00 | C=CC[Si](Cl)(Cl)Cl [ALLYLTRICHLOROSILANE] |
| 85.00 | C=CC(=O)OCCC[Si](C)(C)OC [(3-ACRYLOXYPROPYL)DIMETHYLMETHOXYSILANE] |
| 83.00 | CO[Si](CCCN)(OC)OC [3-AMINOPROPYLTRIMETHOXYSILANE] |

Remark: another data set of the same source

| Structure (SMILES) | flash point [°C] |
| --- | --- |
| C=CCN [prop-2-en-1-amine] | -28.00 |
| CCOCC [ethoxyethane] | -40.00 |

The remaining lines, values ahead:

| flash point [°C] | Structure (SMILES) |
| --- | --- |
| 80.00 | CCCCCCCCCO [nonan-1-ol] |
| 16.00 | CCCCCCCC [octane] |
| -38.00 | CC(C)(C)N [2-methylpropan-2-amine] |
| 30.00 | CC(C)CO [2-methylpropan-1-ol] |
| -25.56 | C1CCOC1 [tetrahydrofuran] |

Remark: another data set of the same source

| Structure (SMILES) | flash point [°C] |
| --- | --- |
| Cc1ccccc1 [toluene] | 7.1 |
| CC(C)c1ccccc1 [cumene] | 31.1 |
| CCC(C)c1cccc(C)c1 (centres undefined) [1-sec -butyl-3-methylbenzene] | 63.1 |
| CCCc1cccc(C)c1C [1,2-dimethyl-3-propylbenzene] | 72 |
| CCCc1ccccc1 [propylbenzene] | 42.1 |
| CCc1cc(C)cc(CC)c1 [1,3-diethyl-5-methylbenzene] | 70 |
| Cc1ccc(C(C)C)c(C)c1 [1,3-dimethyl-4-isopropylbenzene] | 67.2 |
| CCc1ccccc1C [o -ethyltoluene] | 39.1 |
| CCC(C)c1ccc(C)cc1C (centres undefined) [1-sec -butyl-2,4-dimethylbenzene] | 81.4 |
| CCC(C)c1ccc(C)cc1 (centres undefined) [1-sec -butyl-4-methylbenzene] | 65 |
| CCCCc1ccccc1C [1-butyl-2-methylbenzene] | 72.5 |
| CCc1ccc(CC)c(C)c1 [1,4-diethyl-2-methylbenzene] | 73.0 |
| CC(C)c1ccc(C(C)C)cc1 [1,4-diisopropylbenzene] | 76.1 |
| CCc1ccc(C(C)(C)C)cc1 [1-tert -butyl-4-ethylbenzene] | 76.0 |
| Cc1cccc(C(C)(C)C)c1 [1-tert -butyl-3-methylbenzene] | 60.6 |
| CCc1cc(CC)cc(CC)c1 [1,3,5-triethylbenzene] | 81.1 |
| Cc1ccc(CC(C)C)cc1 [1-isobutyl-4-methylbenzene] | 67.4 |
| Cc1ccc(C(C)C)cc1C [1,2-dimethyl-4-isopropylbenzene] | 68.1 |
| CC(C)c1cccc(C(C)C)c1 [1,3-diisopropylbenzene] | 76.8 |
| CCCc1cccc(CC)c1 [1-ethyl-3-propylbenzene] | 69.7 |
| Cc1ccc(C)cc1 [p -xylene] | 25.1 |
| CCc1ccc(C)c(CC)c1 [1,3-diethyl-4-methylbenzene] | 72.2 |

The remaining lines, values ahead:

| flash point [°C] | Structure (SMILES) |
| --- | --- |
| 52 | CCC(C)c1ccccc1 (centres undefined) [sec -butylbenzene] |
| 55.1 | CCc1ccc(CC)cc1 [p -diethylbenzene] |
| 56.1 | CCc1cc(C)ccc1C [2-ethyl-p -xylene] |
| 58.1 | CCc1ccc(C)c(C)c1 [4-ethyl-o -xylene] |
| 87.2 | CCCCCC(C)c1ccccc1 (centres undefined) [(1-methylhexyl)benzene] |
| 50.1 | Cc1ccccc1C(C)C [o -cymene] |
| 54.1 | Cc1ccc(C(C)(C)C)cc1 [4-tert -butyltoluene] |
| 74.2 | CCCC(CC)c1ccccc1 (centres undefined) [(1-ethylbutyl)benzene] |
| 47.1 | Cc1cccc(C(C)C)c1 [m -cymene] |
| 100.1 | CCCCCCC(C)c1ccccc1 (centres undefined) [(1-methylheptyl)benzene] |
| 57.8 | CCCc1ccccc1C [o -propyltoluene] |
| 57.0 | CC(C)C(C)c1ccccc1 (centres undefined) [(1,2-dimethylpropyl)benzene] |
| 36.1 | CCc1ccc(C)cc1 [p -ethyltoluene] |
| 62.1 | CC(C)CCc1ccccc1 [isopentylbenzene] |
| 60.7 | CCCC(C)c1ccccc1 (centres undefined) [sec -pentylbenzene] |
| 55.1 | CCc1ccccc1CC [o -diethylbenzene] |

Remark: another data set of the same source

| Structure (SMILES) | flash point [°C] |
| --- | --- |
| CCC(C)CC(C)C(C)C (centres undefined) [2,3,5-Trimethylheptane] | 31 |
| CCC(C)C(C)C (centres undefined) [2,3-Dimethylpentane] | -15 |
| CC(C)CCC(C)(C)C [2,2,5-Trimethylhexane] | 13 |
| CCC(C)C(C)(C)C(C)C (centres undefined) [2,3,3,4-Tetramethylhexane] | 31 |
| CCC(C)(C)C(C)C [2,3,3-Trimethylpentane] | -0 |
| CC(C)C(C)C(C)(C)C (centres undefined) [2,2,3,4-Tetramethylpentane] | 11 |
| CCCC(C)C(C)(C)C (centres undefined) [2,2,3-Trimethylhexane] | 15 |
| CCCC(C)C(C)C (centres undefined) [2,3-Dimethylhexane] | 10 |
| CCC(C)C(C)C(C)C (centres undefined) [2,3,4-Trimethylhexane] | 15 |
| CC(C)(C)C(C)(C)C [2,2,3,3-Tetramethylbutane] | -0 |
| CC(C)(C)CC(C)(C)C [2,2,4,4-Tetramethylpentane] | 3 |
| CCC(C)(CC)C(C)C [2,3-Dimethyl-3-ethylpentane] | 15 |
| CC(C)CC(C)C(C)C (centres undefined) [2,3,5-Trimethylhexane] | 15 |
| CC(C)(C)CCC(C)(C)C [2,2,5,5-Tetramethylhexane] | 31 |

Second part, the molecule after the results:

| flash point [°C] | Structure (SMILES) |
| --- | --- |
| 15 | CCC(C)C(C)(C)CC (centres undefined) [3,3,4-Trimethylhexane] |
| -18 | CCC(CC)CC [3-Ethylpentane] |
| -19 | CCC(C)(C)CC [3,3-Dimethylpentane] |
| 38 | CCCC(CC)C(C)(C)C (centres undefined) [3-Ethyl-2,2-dimethylhexane] |
| 31 | CCC(C)C(C)CC(C)C (centres undefined) [2,4,5-Trimethylheptane] |
| 31 | CCC(C)(C(C)C)C(C)C [3-Ethyl-2,3,4-trimethylpentane] |
| 15 | CCCC(C)C(C)CC (centres undefined) [3,4-Dimethylheptane] |
| 41 | CCCCC(CC)CCC (centres undefined) [4-Ethyloctane] |
| -87 | CC(C)C [2-Methylpropane] |
| 41 | CCC(C)CCCC(C)C (centres undefined) [2,6-Dimethyloctane] |

Remark: another data set of the same source

| flash point [°C] | Structure (SMILES) |
| --- | --- |
| 76 | CC(C)c1cccc(C(C)C)c1 [1,3-diisopropylbenzene] |
| -21 | C1CCOC1 [tetrahydrofuran] |

| Structure (SMILES) | flash point [°C] |
| --- | --- |
| CCCc1ccccc1 [propylbenzene] | 47 |
